Tests used:
[1] = biological target: Epidermal growth factor receptor (Homo sapiens, UniProt P00533); test: Inhibition of wild-type EGFR expressed using baculovirus expression system by ELISA
[2] = biological target: Epidermal growth factor receptor (Homo sapiens, UniProt P00533, L858R/T790M); test: Inhibition of EGFR T790M/L858R mutant expressed using baculovirus expression system by ELISA
A549 = test: Antiproliferative activity against human A549 cells over-expressing EGFR gene after 72 hrs by SRB assay; assay type: functional, cell-based; conditions: A549, 72 h
A-431 = test: Antiproliferative activity against human A431 cells over-expressing EGFR gene after 72 hrs by SRB assay; assay type: functional, cell-based; conditions: A-431, 72 h
NCI-H1975 = test: Antiproliferative activity against human NCI-H1975 cells over-expressing EGFR mutant gene after 72 hrs by SRB assay; assay type: functional, cell-based; conditions: NCI-H1975, 72 h

Sequence of Epidermal growth factor receptor (Homo sapiens, UniProt P00533) (P00533 whole entry): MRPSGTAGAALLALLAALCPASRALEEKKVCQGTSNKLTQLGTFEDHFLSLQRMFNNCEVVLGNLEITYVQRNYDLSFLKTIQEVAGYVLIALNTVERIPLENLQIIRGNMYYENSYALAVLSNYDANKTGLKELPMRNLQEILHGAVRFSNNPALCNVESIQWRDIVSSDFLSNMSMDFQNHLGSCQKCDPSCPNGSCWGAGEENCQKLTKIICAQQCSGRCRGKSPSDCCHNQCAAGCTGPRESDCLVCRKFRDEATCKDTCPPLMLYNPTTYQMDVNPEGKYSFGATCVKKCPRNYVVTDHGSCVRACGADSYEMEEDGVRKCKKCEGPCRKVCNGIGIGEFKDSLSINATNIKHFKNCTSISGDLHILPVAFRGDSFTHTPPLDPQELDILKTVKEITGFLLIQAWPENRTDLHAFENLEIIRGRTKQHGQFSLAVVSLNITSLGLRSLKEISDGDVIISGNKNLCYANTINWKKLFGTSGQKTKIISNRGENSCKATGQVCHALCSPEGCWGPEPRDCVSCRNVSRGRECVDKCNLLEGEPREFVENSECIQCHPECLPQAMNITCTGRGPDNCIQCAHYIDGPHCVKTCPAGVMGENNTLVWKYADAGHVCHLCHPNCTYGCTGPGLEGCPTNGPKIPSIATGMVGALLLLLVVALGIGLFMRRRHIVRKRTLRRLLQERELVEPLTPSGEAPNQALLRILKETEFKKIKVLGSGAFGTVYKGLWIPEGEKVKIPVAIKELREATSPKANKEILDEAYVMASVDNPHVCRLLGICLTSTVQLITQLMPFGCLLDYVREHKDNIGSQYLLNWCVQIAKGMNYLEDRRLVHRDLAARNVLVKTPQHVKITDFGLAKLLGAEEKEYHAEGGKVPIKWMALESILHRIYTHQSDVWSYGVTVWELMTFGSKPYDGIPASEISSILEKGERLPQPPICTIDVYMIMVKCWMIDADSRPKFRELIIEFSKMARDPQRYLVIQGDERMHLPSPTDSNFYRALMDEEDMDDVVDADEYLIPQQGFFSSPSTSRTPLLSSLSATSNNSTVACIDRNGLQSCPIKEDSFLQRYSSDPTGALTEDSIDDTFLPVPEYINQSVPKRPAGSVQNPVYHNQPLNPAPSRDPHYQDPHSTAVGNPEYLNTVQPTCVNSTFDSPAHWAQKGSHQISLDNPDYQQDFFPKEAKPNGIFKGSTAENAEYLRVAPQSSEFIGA
Sequence of Epidermal growth factor receptor (Homo sapiens, UniProt P00533, L858R/T790M) (P00533 25-1210 T790M/L858R limits assumed): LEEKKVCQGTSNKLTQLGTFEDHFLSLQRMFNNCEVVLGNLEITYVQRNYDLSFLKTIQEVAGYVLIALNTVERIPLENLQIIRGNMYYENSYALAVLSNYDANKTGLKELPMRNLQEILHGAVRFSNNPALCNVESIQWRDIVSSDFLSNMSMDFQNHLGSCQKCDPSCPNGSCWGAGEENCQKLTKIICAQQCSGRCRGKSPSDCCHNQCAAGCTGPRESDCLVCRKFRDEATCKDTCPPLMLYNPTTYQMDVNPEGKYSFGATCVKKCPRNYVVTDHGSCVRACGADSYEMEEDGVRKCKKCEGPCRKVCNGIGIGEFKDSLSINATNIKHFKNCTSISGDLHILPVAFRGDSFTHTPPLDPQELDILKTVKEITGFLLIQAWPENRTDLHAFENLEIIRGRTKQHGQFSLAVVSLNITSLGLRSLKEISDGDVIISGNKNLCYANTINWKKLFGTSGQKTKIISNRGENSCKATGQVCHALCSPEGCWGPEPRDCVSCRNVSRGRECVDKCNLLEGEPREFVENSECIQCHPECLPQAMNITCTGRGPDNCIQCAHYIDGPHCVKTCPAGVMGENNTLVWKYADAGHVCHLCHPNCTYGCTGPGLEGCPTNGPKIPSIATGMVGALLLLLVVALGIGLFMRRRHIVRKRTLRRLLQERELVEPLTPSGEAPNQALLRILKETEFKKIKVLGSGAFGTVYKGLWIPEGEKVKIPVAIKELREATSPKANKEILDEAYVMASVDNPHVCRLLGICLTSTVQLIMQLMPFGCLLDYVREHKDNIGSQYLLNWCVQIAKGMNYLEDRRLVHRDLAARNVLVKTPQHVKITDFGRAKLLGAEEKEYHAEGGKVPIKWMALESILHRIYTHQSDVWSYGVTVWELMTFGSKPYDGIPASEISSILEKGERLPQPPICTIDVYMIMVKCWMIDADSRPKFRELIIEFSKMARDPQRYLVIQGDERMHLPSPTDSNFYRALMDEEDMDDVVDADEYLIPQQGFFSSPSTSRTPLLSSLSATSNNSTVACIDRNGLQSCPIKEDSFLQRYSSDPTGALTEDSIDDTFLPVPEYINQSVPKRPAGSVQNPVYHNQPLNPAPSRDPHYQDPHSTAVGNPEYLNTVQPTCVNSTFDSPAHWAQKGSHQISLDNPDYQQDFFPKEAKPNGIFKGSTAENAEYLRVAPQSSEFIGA

Row | SMILES | IC50 [1] | IC50 [2] | IC50 (A549) | IC50 (A-431) | IC50 (NCI-H1975)
1 | COc1ccc(Nc2nc(Cl)nc(NCc3ccco3)n2)cc1 | > 100 µM | 20.9 µM | > 100 µM | > 100 µM | > 100 µM
2 | Cc1ccc(-n2c(SCC(=O)Nc3ccccc3Cl)nc3sc(C)c(C)c3c2=O)cc1 | 81.6 µM | > 100 µM | 92.8 µM | > 100 µM | 53.7 µM
3 | Cn1cc(NC(=O)/C=N/O)c(=O)n1-c1ccccc1 | > 100 µM | 8.9 µM | > 100 µM | > 100 µM | > 100 µM
4 | COc1cccc2c1C(=O)c1c(O)ccc(O)c1C2=O | 4.3 µM | 17.6 µM | > 100 µM | 71.5 µM | 89.4 µM
5 | Cn1c2ccccc2n2c(=S)[nH]nc12 | > 100 µM | 22 µM | > 100 µM | > 100 µM | > 100 µM
6 | CC(=O)Nc1ccc(S(=O)(=O)Nc2nc3ccccc3nc2Nc2ccc(C(=O)O)cc2)cc1 | 35.8 µM | 23.5 µM | > 100 µM | > 100 µM | > 100 µM
7 | Cc1c(Cc2ccccc2)sc(NCC(=O)COc2ccc3ccccc3c2)c1C(N)=O | > 100 µM | 24.7 µM | 61.1 µM | 63.8 µM | 51.7 µM
8 | O=C(NNC(=O)c1ncc(Cc2ccsc2)s1)Nc1ccccc1 | > 100 µM | 40.9 µM | > 100 µM | > 100 µM | > 100 µM
9 | O=C(Nc1cccc(Br)c1)c1c(O)c2ccccc2[nH]c1=O | > 100 µM | 56.8 µM | > 100 µM | > 100 µM | > 100 µM
10 | CCc1ccc(C(=O)NNc2ccc(Cl)cc2C)cc1 | > 100 µM | 65.6 µM | > 100 µM | > 100 µM | > 100 µM
11 | COc1ccc2c3oc(=O)cc(O)c3c(=O)n(C)c2c1 | 76.4 µM | 65.1 µM | 72.6 µM | > 100 µM | > 100 µM
12 | C=CCn1c(N)c(C(=O)N/N=C/c2cccs2)sc1=S | > 100 µM | 66 µM | > 100 µM | > 100 µM | > 100 µM
13 | O=c1c2c(-c3ccccc3)c3c(nc2nc2[nH]nc(S)n12)-c1ccccc1CC3 | 85.6 µM | > 100 µM | > 100 µM | > 100 µM | > 100 µM
14 | CCOC(=O)c1ccc(NC(=O)CSc2nnc(CNc3ccc(OC)cc3)n2-c2ccccc2)cc1 | 92.4 µM | > 100 µM | > 100 µM | 56.3 µM | > 100 µM
15 | CN(C)c1nc(N/N=C/c2cc(Br)c(O)c(Br)c2O)nc(Nc2ccc(F)cc2)n1 | 25.9 µM | 6.5 µM | 7.7 µM | 8 µM | 10.5 µM
16 | O=C(CSc1nc(O)nc(-c2ccc(Cl)cc2)n1)Nc1ccc(Cl)cc1 | > 100 µM | 13 µM | 42.9 µM | > 100 µM | > 100 µM
17 | CNc1nc(N/N=C\c2ccc(OC)cc2)nc(Nc2ccccc2)n1 | > 100 µM | 31 µM | 76.9 µM | 56 µM | > 100 µM
18 | COc1nc(NCCN2CCOCC2)nc(Nc2ccc(Cl)cc2)n1 | > 100 µM | 1.5 µM | > 100 µM | > 100 µM | > 100 µM
19 | CNc1nc(N/N=C/c2ccc(O)cc2)nc(Nc2ccccc2)n1 | > 100 µM | 30.7 µM | > 100 µM | 47 µM | > 100 µM
20 | COc1cccc(Nc2ccnc(Nc3cccc(OC)c3)n2)c1 | 7.7 µM | 36.1 µM | 3.4 µM | 0.8 µM | 4.1 µM
21 | COc1ccccc1Nc1ccnc(Nc2ccccc2OC)n1 | 90.4 µM | > 100 µM | 51.2 µM | 35.1 µM | 38.2 µM
22 | C=CC(=O)Nc1ccc2ncnc(Nc3ccc(OCc4cccc(F)c4)c(Cl)c3)c2c1 [ALLITINIB] |  |  | 6.8 µM | 0.2 µM | 0.7 µM

Source: ChEMBL document CHEMBL1944545, “Discovery of novel selective inhibitors for EGFR-T790M/L858R” (Bioorg Med Chem Lett, 2012)
